Measured values taken from patent US20130065227A1, “METHODS OF INCREASING MACROPINOCYTOSIS IN CANCER CELLS” (priority 2010, published 2013).

Key:
Hs27 [1] = assay: Uptake of AS1411 by macropinocytosis (MP); type: cell-based, human; settings: Non-cancer, skin fibroblasts
Method: FIG. 2 are graphs showing that AS1411 is internalized by different endocytic mechanisms in DU145 cancer cells and in non-malignant Hs27 cells. DU145 or Hs27 cells were plated 18 h before uptake analysis. Cells were pre-treated as described with inhibitor (gray histogram) or the corresponding vehicle control (black histogram) before addition of 10 μM FL-AS1411 and incubation at 37° C. for 2 h. After incubation, cells were harvested and analyzed by flow cytometry. Pre-treatment conditions were at 37° C. with: (Panel A) 5 μM Cytochalasin D for 30 min; (Panel B) 80 μM Dynasore for 30 min; or (Panel C) 3 mM amiloride for 1 h. All experiments were repeated at least three times and representative data are shown. Solid gray histograms represent background autofluorescence of unstained cells.
To analyze uptake of the oligodeoxynucleotides or dextran-10K (macropinocytic marker) by flow cytometry, 2×10^5 cells in fresh supplemented culture medium (2.5 ml) were plated into 6-well plates for 18 h. After complete adhesion, the cells were incubated with 5′-FAM tagged oligodeoxynucleotides or Alexa Fluor 488 tagged dextran-10K and incubated as indicated in the Description of the Drawings. Cells were washed once with ice-cold PBS, incubated with 1 μg/ml 7-amino-actinomycin D (7-AAD) for 5 min on ice or 1 μg/ml propidium iodide (PI), and washed twice with ice-cold PBS. […]

A549 = assay: Uptake of AS1411 by macropinocytosis (MP); type: cell-based; settings: Cancer, non-small cell lung
Source text: (§1) It has recently been discovered that AS1411 can stimulate macropinocytosis (MP) in cancer cells and this finding was verified by several different methods and in multiple cancer cell lines (Table 1).

BEAS2B = assay: Uptake of AS1411 by macropinocytosis (MP); type: cell-based; settings: Non-cancer, lung epithelial
Source text: as §1

CHO = assay: Uptake of AS1411 by macropinocytosis (MP); type: cell-based; settings: Non-cancer, hamster ovary
Source text: as §1

RCC4 = assay: Uptake of AS1411 by macropinocytosis (MP); type: cell-based; settings: Cancer, renal cell
Source text: as §1

RWPE1 = assay: Uptake of AS1411 by macropinocytosis (MP); type: cell-based; settings: Non-cancer, prostate epithelial
Source text: as §1

Hs27 [2] = assay: Stimulation of macropinocytosis (dextran uptake); type: cell-based, human; settings: Hs27; Non-cancer, skin fibroblasts
Method: (Panel A) DU145 cells were treated with 10 μM tAS1411 or 10 μM tCRO or no oligonucleotide in complete DMEM medium at 37° C. for the time indicated. After treatment, cell medium was changed for fresh complete medium containing 0.2 mg/ml dextran-10K labeled with Alexa Fluor 488, and cells were incubated for 30 min at 37° C. After incubation, cells were harvested and analyzed by flow cytometry to determine dextran uptake. (Panel B) The same experiment was performed using Hs27 cells. (Panel C) DU145 cells were treated with 10 μM tAS1411 or 10 μM tCRO or no oligonucleotide in complete DMEM medium at 37° C. for 48 h. […]
AS1411 causes a change in cancer cell morphology that is characterized by vacuolization, irregular nuclei, and swollen cells (Xu et al., 2001, J. Biol. Chem., 276:43221-30). […] To test this idea, DU145 cells were pre-treated for 24 h with tAS1411, then added FL-AS1411 and evaluated uptake after an additional 2 h using flow cytometry. […] This idea is not necessarily inconsistent with the time course data shown in FIG. 1A because the fluorescence signal may decrease over time for a number of reasons, including exocytosis of the ligand and fluorescence quenching due to protein binding or environmental factors (the fluorophore used for flow cytometry is particularly sensitive to acidic environments). […]

most cancer cells tested = assay: Cell death on continuous exposure; type: cell-based; settings: 10 μM AS1411
Method: As described above, it is known that AS1411 can induce an unusual form of cell death in cancer cells. It was previously shown that G-rich oligonuclotides could induce cell death selectively in cancer cells compared to non-malignant cells, but it was noted that the morphology of the cells was inconsistent with death by apoptosis. The timing of cell death was also quite unusual, with continuous exposure (at 10 μM AS1411) for 7 days or more required to cause complete cell death for most cancer cells tested. […] However, cell death was also dose-dependent and occurred within hours in DU145 cells treated with 40 μM AS1411. Based on the various published reports, the cell death mechanism in U937 leukemia cells was investigated, and it was confirmed that cell death was not by apoptosis (FIG. 14 A-D). […] Although the same detailed studies of cell death have not been carried out in other cancer cell lines, it is consistently seen that AS1411-responsive cells die with a characteristic morphology (enlarged and vacuolated cells) without evidence of apoptosis.

DU145 cells = assay: Cell death / cytotoxicity; type: cell-based
[3] = test system: DU145 CD24^lo/CD44^hi cells; assay: Spheroid culture; type: cell-based; settings: 10 μM AS1411, drug replenished weekly
Method: DU145 CD24^lo/CD44^hi cells were sorted by FACS, plated for sphere culture, and treated with or without 10 μM AS1411. Media was changed and drug replenished weekly. Plates were monitored for dissolution of spheres. Once dissolution was observed, serial photographs were taken of each well and the total number of spheres counted.

5′-d(GGTGGTGGTGGTTGTGGTGGTGGTGG) [AS1411]
Update by MP? (Hs27 [1]): No
Update by MP? (A549): Yes
Update by MP? (BEAS2B): Low
Update by MP? (CHO): No
Update by MP? (RCC4): Yes
Update by MP? (RWPE1): No
Stimulate MP? (Hs27 [2]): No
continuous exposure required to cause complete cell death (most cancer cells tested): ≥ 7 days
timing of cell death (DU145 cells; 40 μM AS1411): within hours
cytotoxicity at higher concentrations (DU145 cells; concentrations higher than 40 μM, early time point (2 h)): apparent cytotoxicity
effect on spheroids [3]: can cause disintegration of spheroids
